The nature of series [1]: Biodegradation: mineralization in compost, respirometer. The following applies: room temperature (22° C.), compared to starch control.
Protocol: The relative degradation rate of samples was determined using a respirometer (Micro-Oxymax System, Columbus Instruments, Columbus, Ohio). The respirometer CO2 sensor was calibrated with a CO2 standard gas (8,000 ppm). […] The analyzer was equipped with a thermoconductivity detector and was operated using helium gas.
Commercial compost was purchased locally and adjusted to 58% moisture (dry weight basis). The glass sample bottles (250 ml) were filled with 20.0 g compost and 0.30 g test sample that was gently mixed with the compost. The sample bottles were initially flushed with CO2-free air and sealed. Respirometry experiments were conducted at room temperature (22° C.) and CO2 concentration was read every 12 hr. Three replications were tested for each treatment and data were expressed in terms of percentage mineralization.
In series [2] the test system is varroa (Varroa destructor). The following applies: at elevated levels, honey bee colonies; cited from earlier work.
For series [3] the following is noted: at 20 C; cited from earlier work.

With mannitol dioctanoate [M8], in series [1], the “Mineralization rate (biodegradability)” value is on record as “mineralized at nearly the same rate as the starch control”.

In general, vapor pressure refers to the pressure of vapour in equilibrium with the condensed phase. Take `CCCCCC(C)=O` [2-heptanone]: in series [2], the “Control of parasitic mites” value was “controls parasitic mites”. In addition, in series [3], the vapor pressure was 0.48 kPa.

The values are drawn from patent US8512726B1, “Molecular gel-based control release devices for pheromones” (The United States of America, as represented by the …, priority 2010, dated 2013).
